Measured values as given in publication PMC6839502 (Journal of Alzheimer's Disease, 2019).
“Also recorded” adds a separate entry of the source.

Experiments:
[1] = ECG QTcF change in SAD and MAD studies; assay type: in vivo, human
BACE1 over BACE 2 = conditions: radioligand binding assay; cited from earlier work
Cathepsin D (Cat D) = conditions: FP assay; cited from earlier work
pigmented C57BL/6J mice = conditions: long-term toxicology studies / 3 weeks of treatment in pigmented C57BL/6J mice; cited from earlier work
dogs = conditions: long-term toxicology / chronic dosing for up to 9 months; cited from earlier work
CYP3A4/5 = conditions: in vitro experiments; ref data on file; cited from earlier work

## C[C@H]1C[C@H]2CSC(N)=N[C@@]2(c2nc(NC(=O)c3ccc(OC(F)F)cn3)cs2)CO1 [PF-06751979]
[1]; 275 mg QD for 14 days, 90% CI: 4.5, 21.1
  Maximum placebo-adjusted mean QTcF change from baseline: 12.8 ms
[1]; single dose 540 mg, 90% CI: 7.6, 22.2
  Maximum placebo-adjusted mean QTcF change from baseline: 14.9 ms
BACE1 over BACE 2
  Selectivity for BACE1 over BACE2: 26.6 fold
Cathepsin D (Cat D)
  Selectivity over Cathepsin D: ~2500 fold
Pigmented C57BL/6J mice
  Hair color (pigmentation) change: not observed; also recorded: did not reveal pigmentation changes
dogs
  Hair color (pigmentation) change: did not reveal any evidence of hair color change; also recorded: did not reveal pigmentation changes
CYP3A4/5
  CYP3A4/5 inhibition: weak metabolism-dependent inhibitor
